In data set [1] the test system is aldose reductase. The following applies: prior art statement; cited from earlier work.
Another data set is described as follows: Solubilities in water. The class given is physicochemical. The following applies: water.
Data set [2] deals with T1, Aldose Reductase (Bos taurus, UniProt P16116).
T1 construct: The enzyme is extracted from beef eye lenses; from tissue; host or cells: beef eye lenses
Kind of data set: Inhibition of aldose reductase in vitro (enzyme from beef eye lenses, glyceraldehyde substrate). The class given is biochemical. The following applies: in DMF solution. The source says:
Inhibition of Aldose Reductase In Vitro
The reoxidation of NADPH coupled to the enzymatic reaction was followed spectrophotometrically at 340 nm.

The test system of a further data set is carragenin edema. Kind of data set: Anti-inflammatory activity: carragenin edema test. The following applies: Rattus norvegicus, ip, substantially alkaline pH solution, read-out: % inhibition of carragenin edema; for inhibition in vivo at 200 mg/kg: 200 mg/kg i.p.; for inhibition in vivo at 100 mg/kg: 100 mg/kg i.p.; for inhibition in vivo at 300 mg/kg: 300 mg/kg i.p. The class given is in vivo. An outline of the steps:
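Male Wistar EOPS rats receive 0.1 ml of 5% carragenin suspension in physiological serum into the hind-paw metatarsal muscle, with test substance given i.p. in neutralized solution at the same time. Paw edema is measured by plethysmometry at several times after carragenin and reported as % inhibition against pH-matched physiological serum controls.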

The next data set deals with capillary resistance. Kind of data set: Capillaroprotecting effects: capillary resistance. The class given is in vivo, male OFA EOPS rats. As for the experimental part:
(§1) Capillaroprotecting effects
The capillary resistance was determined by a variant of the method of Charlier et al, Arch. Inter. Physiol.

Data set [3] can be described thus: i.p. toxicity in Swiss EOPS mice, mortality at 14 days. The following applies: mouse, in vivo, ip, DMSO solution at 1/2, read-out: percentages of mortality at the end of 14 days. As for the experimental part: The i.p. toxicities of certain compounds of the present invention were determined using male and female Swiss EOPS mice for administrations in DMSO solution at 1/2 under a volume of P/100.

The subject of another data set is capillary permeability. Kind of data set: Capillaroprotecting effects: capillary permeability. The class given is in vivo, conventional male Wistar rats. As for the experimental part:
as §1
The capillary permeability was determined by the method of Charlier et al, Arch. Inter. Physiol.

Another data set deals with T2, COMT (Rattus norvegicus, UniProt P22734).
T2 construct: The enzyme is extracted from rat liver; from tissue; host or cells: rat liver
T2 sequence (P22734 1-221 isoform P22734-2): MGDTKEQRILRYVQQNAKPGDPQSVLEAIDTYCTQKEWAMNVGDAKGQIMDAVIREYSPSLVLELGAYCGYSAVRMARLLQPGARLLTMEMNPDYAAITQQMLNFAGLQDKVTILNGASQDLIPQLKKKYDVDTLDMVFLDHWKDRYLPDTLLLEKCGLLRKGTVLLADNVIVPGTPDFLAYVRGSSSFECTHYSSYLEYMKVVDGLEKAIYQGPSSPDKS
Briefly: Inhibition of COMT in vitro (enzyme from rat liver, 4-nitrocatechol substrate). The class given is biochemical. The following applies: in dimethylsulfoxide solution, read-out: percentages of inhibition (COMT). As to the method:
Inhibition of COMT in vitro The enzyme is extracted from rat liver by the method described by Axelrod et al, J. Biol. Chem., 233, 702(1958); its activity is measured in the presence of S-adenosyl methionine and using as substrate 4-nitrocatechol by the method described by Lee et al, J. Pharm. Sci., 66(7), 986(1977). The quantity of 4-nitrocatechol consumed was determined spectrophotometrically at 520 nm in alkaline medium.

Where [4] appears, read: read-out: Solubilities in water.

Each structure is given as a SMILES string. Values after ≈ are worked out from the molar mass of the structure shown. Like-named read-outs stand apart in the source and are kept apart here.

Consider `C[C@@H]1O[C@@H](OC[C@H]2O[C@@H](Oc3c(-c4ccc(OCCO)c(OCCO)c4)oc4cc(OCCO)cc(OCCO)c4c3=O)[C@H](O)[C@@H](O)[C@@H]2O)[C@H](O)[C@H](O)[C@H]1O` [5,7, 3', 4'-tetra-O-hydroxyethyl rutin], for which the “inhibition of aldose reductase in vitro (in words)” value (from here on “inhibition of aldose reductase”) in the data set with aldose reductase [1] is “practically inactive”.

Take `C[C@@H]1O[C@@H](OC[C@H]2O[C@@H](Oc3c(-c4ccc(OCCO)c(OCCO)c4)oc4cc(OCCO)cc(O)c4c3=O)[C@H](O)[C@@H](O)[C@@H]2O)[C@H](O)[C@H](O)[C@H]1O` [7, 3', 4'-tri-O-hydroxyethyl rutin]: the “inhibition of aldose reductase” value in the data set on aldose reductase [1] was “practically inactive”.

Turning to `C[C@@H]1O[C@@H](OC[C@H]2O[C@@H](Oc3c(-c4ccc(O)c(O)c4)oc4cc(OCCO)cc(O)c4c3=O)[C@H](O)[C@@H](O)[C@@H]2O)[C@H](O)[C@H](O)[C@H]1O` [7-O-hydroxyethyl rutin], in the data set on aldose reductase [1], the “inhibition of aldose reductase” value was “practically inactive”.

In general, inhibition refers to the relative decrease from the control value, in per cent. The term mortality denotes the percentage killed. For `O=c1ccc2cc(O[C@@H]3O[C@@H]4COC5(CCCCC5)O[C@H]4[C@H](O)[C@H]3O)c(O)cc2o1` [No. 16, 6-O-(4,6-O,O-cyclohexylidene-β-D-glucosyl) esculetol], in the data set “Solubilities in water” (setting [4]), the solubility turned out to be 1250 µg/mL (≈ 2970 µM). The inhibition at 100 µM at Aldose Reductase [2] (10^-4 mole/l, read-out: percentages of inhibition (aldose reductase)) came to 63%. Moreover, on Aldose Reductase [2] (10^-5 mole/l, read-out: percentages of inhibition (aldose reductase)), the inhibition at 10 µM is 14%. The inhibition in vivo at 200 mg/kg in the data set on carragenin edema (1/2 h) turned out to be 59%; with carragenin edema (1 h, 1 h 1/2), 45%; in the data set with carragenin edema (1 h, 1 h) it was 59%; in the data set with carragenin edema (2 h, 2 h), 46%; in the data set with carragenin edema (3 h, 3 h), 30%; in the data set on carragenin edema (4 h, 4 h) it was 23%. Moreover, the inhibition in vivo at 200 mg/kg was 27% in the data set on carragenin edema (5 h, 5 h) and 24% in the data set with carragenin edema (6 h, 6 h). In addition, the “capillary resistance, effect observed” value in the data set with capillary resistance (25 mg/kg i.p.) was determined as 8.8 ± 6.8 u cm Hg/h; in the data set on capillary resistance (50 mg/kg i.p.), 23 ± 11.1 u cm Hg/h. In addition, the mortality at 336 h in data set [3] (500 mg/kg i.p.) was 10%; in data set [3] (750 mg/kg i.p.), 80%; in data set [3] (1000 mg/kg i.p.), 80%.

As for `COc1ccc(C2CC(=O)c3c(O)cc(O[C@@H]4O[C@H](CO[C@@H]5O[C@@H](C)[C@H](O)[C@H]6OC(C)(C)O[C@@H]56)[C@@H](O)[C@H](O)[C@H]4O)cc3O2)cc1O` (stereo partly drawn) [No. 18, 7-O-(2,3-O,O-isopropylidene-6-α-L-rhamnosyl-β-D-glucosyl)hesperitin], the solubility in “Solubilities in water” (setting [4]) was determined as 900 µg/mL (≈ 1380 µM). The inhibition in vivo at 100 mg/kg in the data set with carragenin edema (1/2 h) worked out at 0%; in the data set with carragenin edema (1 h, 1 h 1/2), 17%; with carragenin edema (1 h, 1 h), 0%; in the data set with carragenin edema (2 h, 2 h), 16%; with carragenin edema (3 h, 3 h), 13%; in the data set with carragenin edema (4 h, 4 h), 20%. The inhibition in vivo at 100 mg/kg with carragenin edema (5 h, 5 h) stood at 21%; in the data set on carragenin edema (6 h, 6 h), 27%. Besides, the inhibition in vivo at 200 mg/kg was 0% with carragenin edema (1/2 h); 39% in the data set with carragenin edema (1 h, 1 h 1/2); 18% in the data set on carragenin edema (1 h, 1 h); 42% in the data set on carragenin edema (2 h, 2 h); 46% in the data set with carragenin edema (3 h, 3 h); 52% with carragenin edema (4 h, 4 h). The inhibition in vivo at 200 mg/kg came out at 50% in the data set with carragenin edema (5 h, 5 h) and 55% in the data set on carragenin edema (6 h, 6 h). Also, the inhibition in vivo at 300 mg/kg in the data set with carragenin edema (1/2 h) was 0%; in the data set with carragenin edema (1 h, 1 h 1/2) it was 27%; in the data set with carragenin edema (1 h, 1 h), 0%; in the data set with carragenin edema (2 h, 2 h), 27%; with carragenin edema (3 h, 3 h), 21%; in the data set with carragenin edema (4 h, 4 h) it was 26%. In addition, the inhibition in vivo at 300 mg/kg with carragenin edema (5 h, 5 h) amounted to 16%; with carragenin edema (6 h, 6 h), 16%. The “percentage reduction of capillary permeability” value stood at 24% in the data set on capillary permeability (10 mg/kg i.p.), 21% in the data set with capillary permeability (50 mg/kg i.p.) and 8% in the data set on capillary permeability (75 mg/kg i.p.). The mortality at 336 h in data set [3] (1000 mg/kg i.p.) and in data set [3] (2000 mg/kg i.p.) was 0% throughout.

With `C[C@@H]1O[C@@H](OC[C@H]2O[C@@H](Oc3c(-c4ccc(O)c(O)c4)oc4cc(O)cc(O)c4c3=O)[C@H](O)[C@@H](O)[C@@H]2O)[C@H](O)[C@H](O)[C@H]1O` [Rutin, rutin, reference compound], in “Solubilities in water”, the solubility came to 120 µg/mL (≈ 197 µM). Further, on Aldose Reductase [2] (5.10^-6 mole/l), the “percentages of inhibition (aldose reductase)” value was determined as 0%. For the same molecule, the inhibition at 1000 µM at COMT (10^-3 mole/l) fell in the range of 63 to 68%. In addition, the inhibition at 10 µM on COMT (10^-5 mole/l) came to 13%. In addition, the “inhibition of aldose reductase” value in the data set with aldose reductase [1] was “inhibits aldose reductase in vitro”.

These data come from patent US4211772A, “Benzopyran glycoside acetals and ketals” (Laboratoires Sarget, priority 1977, dated 1980).
